Where “and” joins values, the source holds several entries; their conditions need not be identical. Equal entries are not always repeated.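 How tested: cells in 96-well plates exposed to compound for 48 hours at five concentrations. GI50 is the concentration that inhibits growth by half. TGI denotes the concentration required for complete inhibition of growth.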
Test system: MDA-MB-468 breast
Experiment: NCI-60 cell line screen, 48 h

`CC1=C2C(=C[C@@](C)(COC(=O)c3ccc(S(=O)(=O)F)cc3)[C@@H]2OC(=O)c2ccc(S(=O)(=O)F)cc2)C(=O)[C@](C)(O)C12CC2` was tested. Which GI50 did it give?
The GI50 was 187 nM.

What about the TGI of the same molecule?
Its TGI is 465 nM.

How did the GI50 turn out when `COc1cc(Cn2cc3c(c2)-c2oncc2CC3)cc(OC)c1OC` was run?
The GI50 was 14.7 nM.

What about the TGI of the same molecule?
Its TGI is 54.1 nM.

Which results are given for `CCOC(=O)Cc1c[nH]c(=S)[nH]c1=O`?
GI50: > 100000 nM; TGI: > 100000 nM

`CCCN1C(=O)/C(=c2\sc3n(c2=O)C2C(NN=3)N(CC)C(=O)N2CC)c2ccccc21` (stereo unspecified) was tested. Which GI50 did it give?
The GI50 was 464 nM.

What about the TGI of the same molecule?
The TGI was 10400 nM.

How did the GI50 turn out when `OCC1OC(n2ccc3c2ncn2ncnc32)C(O)C1O` (stereo unspecified) was run?
The GI50 was 279 nM.

What about the TGI of the same molecule?
Its TGI is 3190 nM.

Which GI50 does the source give for `CC1=C(C)C(=O)C(Nc2cccc(C(F)(F)F)c2)=C(Cl)C1=O` here?
The GI50 was 1240 nM.

What about the TGI of the same molecule?
Its TGI is 2940 nM.

What does the source list for `Fc1ccc(-c2nc3n(c2-c2ccncc2)CCS3)cc1`?
GI50: 4630 nM; TGI: > 25000 nM

How did the GI50 turn out when `CCn1c(-c2nonc2N)nc2cncc(C(=O)N3CCNCC3)c21` was run?
Its GI50 is greater than 25000 nM.

And the TGI?
The TGI was greater than 25000 nM.

With `CNC(=O)c1cc(N2CCc3cc(NC(=O)Nc4ccc(N5CCN(C)CC5)c(C(F)(F)F)c4)ccc32)ccn1` as the molecule, how does the GI50 read?
Its GI50 is 3680 nM.

What about the TGI of the same molecule?
Its TGI is 7950 nM.

`COc1cc2c(cc1OC)-c1ccc3cc4c(cc3c1N(CCN1CCCC1)C2)OCO4` was tested. Which GI50 did it give?
The GI50 was 653 nM.

What about the TGI of the same molecule?
Its TGI is 2200 nM.

How did the GI50 turn out when `O=C(Nc1cccc(Cl)c1)Nc1ncc(CCNc2ncnc3ccsc23)s1` was run?
The GI50 was 196 nM and 952 nM.

And the TGI?
Its TGI is 8390 nM and > 10000 nM.

Which GI50 does the source give for `N=C(N)c1nn(C2OC(CO)C(O)C2O)c2nc[nH]c(=O)c12` (stereo unspecified) here?
The GI50 was 372 nM.

What about the TGI of the same molecule?
Its TGI is 1690 nM.

For `O=C(CCN1CCCC1)Nc1ccc2c(NCc3ccc(F)cc3)c3ccccc3nc2c1`, which GI50 is on record?
Its GI50 is 318 nM.

What about the TGI of the same molecule?
Its TGI is 1400 nM.
